# Experimental data: patent publication US8173694B2, “Therapeutic agent” (Pentraxin Therapeutics Limited, priority 2001, dated 2012)
# Columns and labels:
# [1] = target: SAP (Homo sapiens, UniProt P02743); settings: known low molecular weight ligands; cited from earlier work
# [2] = target: serum amyloid P component (SAP) (Homo sapiens, UniProt P02743); experiment: Inhibition of SAP binding to amyloid fibrils in vitro; settings: in vitro inhibition of binding of SAP to amyloid fibrils, protocol of EP 0915088 page 10; read-out: IC50
# serum amyloid P component (SAP), sequence (P02743 20-223): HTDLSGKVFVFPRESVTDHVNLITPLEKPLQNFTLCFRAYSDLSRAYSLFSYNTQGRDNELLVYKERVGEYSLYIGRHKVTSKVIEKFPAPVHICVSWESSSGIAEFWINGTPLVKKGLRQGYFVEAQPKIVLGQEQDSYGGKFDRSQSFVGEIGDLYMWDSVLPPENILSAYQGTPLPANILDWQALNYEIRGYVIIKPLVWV
# Text: A method for screening and testing inhibitors of serum amyloid P component (SAP) binding to amyloid fibrils in vitro was devised and used in collaboration with F Hoffmann-La Roche Ltd to identify a suitable lead molecule for drug development. A library of candidate compounds was screened accordingly. The subsequent collaborative medicinal chemistry programme led to synthesis of a family of dicarboxylic acid, pyrrolidone ring containing molecules, of which the most studied is (R)-1-[6-(R)-2-Carboxy-pyrrolidin-1-yl]-6-oxo-hexanoyl]pyrrolidine-2-carboxylic acid. This molecule and related compounds (EP-A-0915088) are modestly potent inhibitors of SAP binding to amyloid fibrils in vitro, with IC50 values around 0.5-1.0 μM.
# Further studies determined that each of the following bis-D-Proline compounds were tested for their ability to deplete SAP in vivo as described above. Each of the compounds identified below successfully depleted SAP. In addition, certain of the compounds were further tested for in vitro inhibition of binding of SAP to amyloid fibrils in accordance with the protocol provided in EP 0915088 at page 10, as referenced above. The results are shown in the second column below, where applicable.
# [3] = system: SAP; experiment: SAP binding to experimentally induced amyloid deposits in mice; format: in vivo, mouse
# Text: The potency of (R)-1-[6-(R)-2-Carboxy-pyrrolidin-1-yl]-6-oxo-hexanoyl]pyrrolidine-2-carboxylic acid in vivo was initially considered to be consistent with its lower IC50 value in vitro. However the decameric assembly of pentameric SAP molecules, induced by the cross linking capacity of the palindromic drug, is an abnormal molecular configuration which, according to the present invention, will be recognised in vivo and promptly cleared from the circulation. This action of the drug, leading to massive depletion of SAP from the plasma, makes a critical contribution to removal of SAP from the amyloid deposits because the SAP in amyloid is derived from, and in equilibrium with, the plasma SAP pool.
# SAP (Homo sapiens, UniProt P02743), sequence (P02743 20-223): as above
IC50 [2] [nM],Structure (SMILES),further results
,NCCOP(=O)(O)O [phosphoethanolamine],Affinity of binding by SAP [1]: about millimolar
500,Cc1c(OCC(=O)N2CCC[C@@H]2C(=O)O)cccc1OCC(=O)N1CCC[C@@H]1C(=O)O,
,CC(CS)C(=O)N1CCC[C@@H]1C(=O)O (stereo partly drawn) [1-(3-Mercapto-2-methyl-1-oxopropyl)-D-proline],Binding of SAP to experimentally induced amyloid deposits [3]: inhibits binding of SAP; Dissociation of SAP already bound in amyloid deposits [3]: dissociates SAP that is already bound in the deposits
300,O=C(O)[C@H]1CCCN1C(=O)COc1ccc(OCC(=O)N2CCC[C@@H]2C(=O)O)cc1,
700,O=C(O)[C@H]1CCCN1C(=O)Cc1cccc(CC(=O)N2CCC[C@@H]2C(=O)O)c1,
,"CO[C@@H]1O[C@@H]2COC(C)(C(=O)O)O[C@@H]2[C@H](O)[C@H]1O (stereo partly drawn) [MOβDG, methyl 4,6-O-(1-carboxyethylidene)-β-D-galactopyranoside]",Affinity of binding by SAP [1]: about millimolar
350,O=C(O)[C@H]1CCCN1C(=O)Cc1ccc(CC(=O)N2CCC[C@@H]2C(=O)O)cc1,
700,O=C(O)[C@H]1CCCN1C(=O)c1ccc(C(=O)N2CCC[C@@H]2C(=O)O)cc1,
400,O=C(O)[C@H]1CCCN1C(=O)COc1ccccc1OCC(=O)N1CCC[C@@H]1C(=O)O,
